From patent publication US20060189650A1, “Novel piperidine derivatives as modulators of chemokine receptor ccr5” (priority 2002, published 2006)

Target: recombinant human CCR5 receptor (Homo sapiens, UniProt P51681)
Assay: MIP-1α radioligand binding assay (scintillation proximity, CHO cell membranes)
Details: negative log (base 10) of IC50, displacement of 0.1 nM iodinated MIP-1α; average if tested more than once
Description: The ability of compounds to inhibit the binding of MIP-1α was assessed by an in vitro radioligand binding assay. Membranes were prepared from Chinese hamster ovary cells which expressed the recombinant human CCR5 receptor. These membranes were incubated with 0.1 nM iodinated MIP-1α, scintillation proximity beads and various concentrations of the compounds of the invention in 96-well plates. The amount of iodinated MIP-1α bound to the receptor was determined by scintillation counting. Competition curves were obtained for compounds and the concentration of compound which displaced 50% of bound iodinated MIP-1α was calculated (IC50).
In Table XV the results are presented as Pic50 values. A Pic50 value is the negative log (to base 10) of the IC50 result, so an IC50 of 1 μM (that is 1×10^−6M) gives a Pic50 of 6. If a compound was tested more than once then the data below is an average of the probative tests results.

Sequence of recombinant human CCR5 receptor (P51681 whole entry): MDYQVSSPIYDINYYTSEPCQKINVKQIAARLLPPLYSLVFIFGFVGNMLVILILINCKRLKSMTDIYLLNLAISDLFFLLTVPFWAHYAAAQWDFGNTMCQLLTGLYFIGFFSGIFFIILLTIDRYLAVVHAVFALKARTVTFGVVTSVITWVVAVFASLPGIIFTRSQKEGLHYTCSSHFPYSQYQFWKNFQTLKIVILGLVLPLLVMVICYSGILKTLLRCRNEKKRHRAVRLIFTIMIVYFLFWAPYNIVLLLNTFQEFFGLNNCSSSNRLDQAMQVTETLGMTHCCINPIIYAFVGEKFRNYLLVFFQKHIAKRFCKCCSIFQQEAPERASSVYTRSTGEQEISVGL

With `CS(=O)(=O)c1ccc(S(=O)(=O)CCC2CCN(CC[C@H](NC(=O)c3ccc(Cl)cc3)c3ccccc3)CC2)cc1` [Table IV Compound 2] the IC50 was 1.58 nM.
With `CS(=O)(=O)c1ccc([C@@H](CCN2CCC(CCS(=O)(=O)c3ccc(S(C)(=O)=O)cc3)CC2)c2cc(F)cc(F)c2)cc1` [Table V Compound 7, 1-{(3R)-3-(3,5-difluorophenyl)-3-[4-(methylsulfonyl)phenyl]propyl}-4-(2-{[4-(methylsulfonyl)phenyl]sulfonyl}ethyl)piperidine] the IC50 was 0.631 nM.
With `Cn1nnc(-c2ccc(S(=O)(=O)CCC3CCN(CC[C@H](c4ccc(S(C)(=O)=O)cc4)c4cc(F)cc(F)c4)CC3)cc2)n1` [Table V Compound 19, 1-{(3R)-3-(3,5-difluorophenyl)-3-[4-(methylsulfonyl)phenyl]propyl}-4-(2-{[4-(2-methyl-2H-tetrazol-5-yl)phenyl]sulfonyl}ethyl)piperidine] the IC50 was 2 nM.
